Positions count from the first letter of the chain named. Where a name gives a salt, the structure may show the parent alone.
Assays:
Abl kinase (SEQ ID NO:1) = target: T1, Abl kinase (SEQ ID NO:1) (Homo sapiens, UniProt P00519); assay: Abl kinase assay (pyruvate kinase/lactate dehydrogenase coupled, ADP production); conditions: 2 h preincubation at 30° C., ATP 500 μM; read-out: Abl Enzyme Assay, biochemical IC50
T1 construct: purchased deCode Genetics
T1 sequence (P00519 with tags, fused parts or gaps): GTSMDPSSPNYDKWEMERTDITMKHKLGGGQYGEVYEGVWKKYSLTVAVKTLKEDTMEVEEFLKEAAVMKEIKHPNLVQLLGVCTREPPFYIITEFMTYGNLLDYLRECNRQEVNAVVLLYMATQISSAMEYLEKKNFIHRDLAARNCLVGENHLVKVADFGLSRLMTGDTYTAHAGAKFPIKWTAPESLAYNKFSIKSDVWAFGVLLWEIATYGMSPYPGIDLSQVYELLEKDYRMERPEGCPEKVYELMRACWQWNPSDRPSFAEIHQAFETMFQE
Procedure: Abl Kinase (SEQ ID NO:1) Assay
Activity of Abl kinase (SEQ ID NO:1) was determined by following the production of ADP from the kinase reaction through coupling with the pyruvate kinase/lactate dehydrogenase system (e.g., Schindler, et al. Science (2000) 289, 1938-1942). In this assay, the oxidation of NADH (thus the decrease at A340nm) was continuously monitored spectrophometrically. The reaction mixture (100 μl) contained Abl kinase (1 nM. Abl from deCode Genetics), peptide substrate (EAIYAAPFAKKK. 0.2 mM), MgCl2 (10 mM), pyruvate kinase (4 units), lactate dehydrogenase (0.7 units), phosphoenol pyruvate (1 mM), and NADH (0.28 mM) in 90 mM Tris buffer containing 0.2% octyl-glucoside and 3.5% DMSO, pH 7.5. Test compounds were incubated with Abl (SEQ ID NO:1) and other reaction reagents at 30° C. for 2 h before ATP (500 μM) was added to start the reaction. The absorption at 340 nm was monitored continuously for 2 hours at 30° C. on Polarstar Optima plate reader (BMG). The reaction rate was calculated using the 1.0 to 2.0 h time frame. Percent inhibition was obtained by comparison of reaction rate with that of a control (i.e. with no test compound). IC50 values were calculated from a series of percent inhibition values determined at a range of inhibitor concentrations using software routines as implemented in the GraphPad Prism software package.

[1] = target: T2, T315I Abl kinase (SEQ ID NO:2) (Homo sapiens, UniProt P00519, T315I); assay: T315I Abl kinase assay (pyruvate kinase/lactate dehydrogenase coupled); conditions: 1 h preincubation at 30° C., ATP 500 μM; read-out: Abl T315l Enzyme Assay, biochemical IC50
T2 construct: purchased deCode Genetics
T2 sequence (P00519 with tags, fused parts or gaps T315I): T1 sequence (P00519 with tags, fused parts or gaps) with T94I
Procedure: Abl Kinase (SEQ ID NO:2) Assay
Activity of T315I Abl kinase (SEQ ID NO:2) was determined by following the production of ADP from the kinase reaction through coupling with the pyruvate kinase/lactate dehydrogenase system (e.g., Schindler, et al. Science (2000) 289, 1938-1942). In this assay, the oxidation of NADH (thus the decrease at A340nm) was continuously monitored spectrophometrically. The reaction mixture (100 μl) contained Abl kinase (4.4 nM. […] Abl from deCode Genetics), peptide substrate (EAIYAAPFAKKK, 0.2 mM), MgCl2 (10 mM), pyruvate kinase (4 units), lactate dehydrogenase (0.7 units), phosphoenol pyruvate (1 mM), and NADH (0.28 mM) in 90 mM Tris buffer containing 0.2% octyl-glucoside and 1% DMSO, pH 7.5. Test compounds were incubated with T315I Abl (SEQ ID NO:2) and other reaction reagents at 30° C. for 1 h before ATP (500 μM) was added to start the reaction. The absorption at 340 nm was monitored continuously for 2 hours at 30° C. on Polarstar Optima plate reader (BMG). The reaction rate was calculated using the 1.0 to 2.0 h time frame. Percent inhibition was obtained by comparison of reaction rate with that of a control (i.e. with no test compound). IC50 values were calculated from a series of percent inhibition values determined at a range of inhibitor concentrations using software routines as implemented in the GraphPad Prism software package.

[2] = target: T3, BaF3 cells transfected with wild type p210 BCR-Abl (Homo sapiens, UniProt P00519); assay: Ba/F3 p210 whole cell proliferation assay (Cell Titer Blue, 72 hours); format: cell-based; conditions: 72 hours incubation; read-out: Ba/F3 p210 whole cell proliferation assay, antiproliferation IC50
T3 construct: fused on or other part: P11274 (Breakpoint cluster region protein)
Procedure: (§1) BaF3 cells (parental or transfected with the following: wild type p210 BCR-Abl and T315I p210 BCR-Abl was obtained from Professor Richard Van Etten (New England Medical Center, Boston, Mass.). Briefly, cells were grown in RPMI 1640 supplemented with 10% characterized fetal bovine serum (HyClone, Logan, Utah) at 37 degrees Celsius, 5% CO2, 95% humidity. Cells were allowed to expand until reaching 80% saturation at which point they were subcultured or harvested for assay use.
(§2) A serial dilution of test compound was dispensed into a 96 well black clear bottom plate (Corning, Corning, N.Y.). For each cell line, three thousand cells were added per well in complete growth medium. Plates were incubated for 72 hours at 37 degrees Celsius, 5% CO2, 95% humidity. At the end of the incubation period Cell Titer Blue (Promega, Madison, Wis.) was added to each well and an additional 4.5 hour incubation at 37 degrees Celsius, 5% CO2, 95% humidity was performed. Plates were then read on a BMG Fluostar Optima (BMG, Durham, N.C.) using an excitation of 544 nm and an emission of 612 nm. Data was analyzed using Prism software (Graphpad, San Diego, Calif.) to calculate IC50's.

[3] = target: T4, BaF3 cells transfected with T315I p210 BCR-Abl (Homo sapiens, UniProt P00519, T315I, cells depend on it); assay: Ba/F3 p210 T315I whole cell proliferation assay (Cell Titer Blue, 72 hours); format: cell-based; conditions: 72 hours incubation; read-out: Ba/F3 p210 T315I whole cell proliferation assay, antiproliferation IC50
T4 construct: fused on or other part: P11274 (Breakpoint cluster region protein)
Procedure: as §1, §2

1-(2-tert-butyl-4-(pyridin-3-yl)pyrimidin-5-yl)-3-(2-fluoro-5-(8-methyl-2-(methylamino)-7-oxo-7,8-dihydropyrido[2,3-d]pyrimidin-6-yl)phenyl)urea [Example 10]
IC50 (Abl kinase (SEQ ID NO:1)): < 0.1 µM
IC50 [1]: < 100 µM
GI50 [2]: < 0.1 µM
GI50 [3]: < 0.1 µM

CC(C)c1cc(NC(=O)Nc2ccc(Oc3ccnc(-c4cnn(C)c4)c3)cc2F)n(-c2cccc(C#N)c2)n1 [Example 2, 1-(1-(3-cyanophenyl)-3-isopropyl-1H-pyrazol-5-yl)-3-(2-fluoro-4-(2-(1-methyl-1H-pyrazol-4-yl)pyridin-4-yloxy)phenyl)urea]
IC50 (Abl kinase (SEQ ID NO:1)): < 0.1 µM
IC50 [1]: < 0.1 µM
GI50 [2]: < 0.1 µM
GI50 [3]: < 0.1 µM

CC(C)(C)c1cc(NC(=O)Nc2ccc(Oc3ccnc(-c4cn[nH]c4)c3)cc2F)n(-c2cccc(C#N)c2)n1 [Example 3, 1-(4-(2-(1H-pyrazol-4-yl)pyridin-4-yloxy)-2-fluorophenyl)-3-(3-tert-butyl-1-(3-cyanophenyl-1H-pyrazol-5-yl)urea hydrochloride]
IC50 (Abl kinase (SEQ ID NO:1)): < 0.1 µM
IC50 [1]: < 0.1 µM
GI50 [2]: < 0.1 µM
GI50 [3]: < 0.1 µM

Cn1cc(-c2cc(Oc3ccc(NC(=O)Nc4cc(C(C)(C)C)nn4-c4cccc(C#N)c4)c(F)c3)ccn2)cn1 [Example 4, 1-(3-tert-butyl-1-(3-cyanophenyl)-1H-pyrazol-5-yl)-3-(2-fluoro-4-(2-(1-methyl-1H-pyrazol-4-yl)pyridin-4-yloxy)phenyl)urea hydrochloride]
IC50 (Abl kinase (SEQ ID NO:1)): < 0.1 µM
IC50 [1]: < 0.1 µM
GI50 [2]: < 0.1 µM
GI50 [3]: < 0.1 µM

CC(C)c1cc(NC(=O)Nc2ccc(Oc3ccnc(-c4cnn(C)c4)c3)cc2F)n(-c2ccc(F)c(C#N)c2)n1 [Example 5, 1-(1-(3-cyano-4-fluorophenyl)-3-isopropyl-1H-pyrazol-5-yl)-3-(2-fluoro-4-(2-(1-methyl-1H-pyrazol-4-yl)pyridin-4-yloxy)phenyl)urea]
IC50 (Abl kinase (SEQ ID NO:1)): < 0.1 µM
IC50 [1]: < 0.1 µM
GI50 [2]: < 0.1 µM
GI50 [3]: < 0.1 µM

Cn1cc(-c2cc(Oc3ccc(NC(=O)Nc4cc(C(C)(C)C)nn4-c4ccc(C#N)cc4)c(F)c3)ccn2)cn1 [Example 6, 1-(3-tert-butyl-1-(4-cyanophenyl)-1H-pyrazol-5-yl)-3-(2-fluoro-4-(2-(1-methyl-1H-pyrazol-4-yl)pyridin-4-yloxy)phenyl)urea]
IC50 (Abl kinase (SEQ ID NO:1)): < 0.1 µM
IC50 [1]: < 0.1 µM
GI50 [2]: < 0.1 µM
GI50 [3]: < 0.1 µM

Cn1cc(-c2cc(Oc3ccc(NC(=O)Nc4cc(C(C)(C)C)nn4-c4cccc(CO)c4)c(F)c3)ccn2)cn1 [Example 7, 1-(3-tert-butyl-1-(3-(hydroxymethyl)phenyl)-1H-pyrazol-5-yl)-3-(2-fluoro-4-(2-(1-methyl-1H-pyrazol-4-yl)pyridin-4-yloxy)phenyl)urea p-toluenesulfonic acid]
IC50 (Abl kinase (SEQ ID NO:1)): < 0.1 µM
IC50 [1]: < 0.1 µM
GI50 [2]: < 0.1 µM
GI50 [3]: < 0.1 µM

Cn1cc(-c2cc(Oc3ccc(NC(=O)Nc4cc(C(C)(C)C)nn4-c4ccc(CO)cc4)c(F)c3)ccn2)cn1 [Example 8, 1-(3-tert-butyl-1-(4-(hydroxymethyl)phenyl)-1H-pyrazol-5-yl)-3-(2-fluoro-4-(2-(1-methyl-1H-pyrazol-4-yl)pyridin-4-yloxy)phenyl)urea]
IC50 (Abl kinase (SEQ ID NO:1)): < 0.1 µM
IC50 [1]: < 0.1 µM
GI50 [2]: < 0.1 µM
GI50 [3]: < 0.1 µM

CCc1cc(NC(=O)Nc2ccc(Oc3ccnc(-c4cnn(C)c4)c3)cc2F)n(-c2cccc(C#N)c2)n1 [Example 9, 1-(1-(3-cyanophenyl)-3-ethyl-1H-pyrazol-5-yl)-3-(2-fluoro-4-(2-(1-methyl-1H-pyrazol-4-yl)pyridin-4-yloxy)phenyl)urea]
IC50 (Abl kinase (SEQ ID NO:1)): < 0.1 µM
IC50 [1]: < 0.1 µM
GI50 [2]: < 0.1 µM
GI50 [3]: < 0.1 µM

Cc1ccc(-n2nc(C(C)C)cc2NC(=O)Nc2ccc(Oc3ccnc(-c4cnn(C)c4)c3)cc2F)cc1C#N [Example 11, 1-(1-(3-cyano-4-methylphenyl)-3-isopropyl-1H-pyrazol-5-yl)-3-(2-fluoro-4-(2-(1-methyl-1H-pyrazol-4-yl)pyridin-4-yloxy)phenyl)urea]
IC50 (Abl kinase (SEQ ID NO:1)): < 0.1 µM
IC50 [1]: < 0.1 µM
GI50 [2]: < 0.1 µM
GI50 [3]: < 0.1 µM

Cc1c(Oc2ccnc(-c3cnn(C)c3)c2)ccc(NC(=O)Nc2cc(C(C)C)nn2-c2cccc(C#N)c2)c1F [Example 12, 1-(1-(3-cyanophenyl)-3-isopropyl-1H-pyrazol-5-yl)-3-(2-fluoro-3-methyl-4-(2-(1-methyl-1H-pyrazol-4-yl)pyridin-4-yloxy)phenyl)urea]
IC50 (Abl kinase (SEQ ID NO:1)): < 0.1 µM
IC50 [1]: < 0.1 µM
GI50 [2]: < 0.1 µM
GI50 [3]: < 0.1 µM

CC(C)c1cc(NC(=O)Nc2ccc(Oc3ccnc(-c4cnn(C)c4)c3)c(F)c2F)n(-c2cccc(C#N)c2)n1 [Example 13, 1-(1-(3-cyanophenyl)-3-isopropyl-1H-pyrazol-5-yl)-3-(2,3-difluoro-4-(2-(1-methyl-1H-pyrazol-4-yl)pyridin-4-yloxy)phenyl)urea]
IC50 (Abl kinase (SEQ ID NO:1)): < 0.1 µM
IC50 [1]: < 0.1 µM
GI50 [2]: < 0.1 µM
GI50 [3]: < 0.1 µM

Cc1ncc(NC(=O)Nc2ccc(Oc3ccnc(-c4cnn(C)c4)c3)cc2F)c(-c2ccccc2)n1 [Example 14, 1-(2-fluoro-4-(2-(1-methyl-1H-pyrazol-4-yl)pyridin-4-yloxy)phenyl)-3-(2-methyl-4-phenylpyrimidin-5-yl)urea]
IC50 (Abl kinase (SEQ ID NO:1)): < 0.1 µM
IC50 [1]: < 100 µM
GI50 [2]: < 0.1 µM
GI50 [3]: < 0.1 µM

CC(C)c1cc(NC(=O)Nc2ccc(Oc3ccnc(-c4cnn(C)c4)c3)c(F)c2)n(-c2cccc(C#N)c2)n1 [Example 16, 1-(1-(3-cyanophenyl)-3-isopropyl-1H-pyrazol-5-yl)-3-(3-fluoro-4-(2-(1-methyl-1H-pyrazol-4-yl)pyridin-4-yloxy)phenyl)urea]
IC50 (Abl kinase (SEQ ID NO:1)): < 0.1 µM
IC50 [1]: < 0.1 µM
GI50 [2]: < 0.1 µM
GI50 [3]: < 0.1 µM

Source: patent publication US20080269267A1, “KINASE INHIBITORS USEFUL FOR THE TREATMENT OF MYLEOPROLIFIC DISEASES AND OTHER PROLIFERATIVE DISEASES” (Deciphera Pharmaceuticals, LLC, priority 2007, published 2008)
